{
  "source": "patent US10975093B2",
  "about": "“Fused 1,4-diazepines as BET protein degraders” (THE REGENTS OF THE UNIVERSITY OF MICHIGAN, priority 2016, dated 2021)",
  "type_in_all_cases": "cell-based",
  "key": {"[1]": {"test_system": "MDA-MB-468", "test": "Cell growth inhibition, CellTiter-Glo Luminescent Cell Viability Assay, MDA-MB-468", "details": "Homo sapiens, 96 h, MDA-MB-468 cells, 4 days incubation", "method": "(§1) Cell growth inhibitory activity of representative Compounds of the Disclosure was determined in various cell lines using CellTiter-Glo® Luminescent Cell Viability Assay. Cells were seeded in 384-well white opaque cell culture plates at a density of 2,000 cells/well with serially diluted compounds and incubated at 37° C. in an atmosphere of 95% air and 5% CO2 for 4 days. Cell viability was determined using the CellTiter-Glo® Luminescent Cell Viability Assay Kit (Promega, Madison, Wis.) according to the manufacture's instruction. Briefly, a volume of CellTiter-Glo® Reagent equal to the volume of cell culture medium was added to each well, and then the plates were incubated at room temperature for 10-20 minutes. The luminescent signal was measured using a Tecan Infinite M1000 multimode microplate reader (Tecan, Morrisville, N.C.). The half maximal inhibitory concentration (IC50) was calculated using the GraphPad Prism 5 software (GraphPad Software, La Jolla, Calif.)."}, "[2]": {"test_system": "RS4; 11", "test": "Cell growth inhibition, CellTiter-Glo Luminescent Cell Viability Assay, RS4;11", "details": "Homo sapiens, 96 h, RS4;11 cells, 4 days incubation", "method": "as §1"}, "[3]": {"test_system": "MDA-MB-231", "test": "Cell growth inhibition, CellTiter-Glo Luminescent Cell Viability Assay, MDA-MB-231", "details": "Homo sapiens, 96 h, MDA-MB-231 cells, 4 days incubation", "summary_of_the_method": "(§2)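 Cells were seeded at 2,000/well with serially diluted compound and grown 4 days at 37° C, 5% CO2. Viability was read by CellTiter-Glo luminescence after 10-20 min at room temperature, and IC50 was fitted from the dose-response.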"}, "[4]": {"test_system": "MOLM-13", "test": "Cell growth inhibition, CellTiter-Glo Luminescent Cell Viability Assay, MOLM-13", "details": "Homo sapiens, 96 h, MOLM-13 cells, 4 days incubation", "summary_of_the_method": "as §2"}},
  "data": [
    {"smiles": "Cc1c(C#Cc2ccc(CCCCOc3cccc4c3C(=O)N(C3CCC(=O)NC3=O)C4=O)cn2)sc2c1C(c1ccc(Cl)cc1)=NCc1nnc(C)n1-2", "note": "(stereo not shown) [Cpd. No. 9, 4-(4-(6-((4-(4-chlorophenyl)-3,9-dimethyl-6H-thieno[3,2-f][1,2,4]triazolo[4,3-a][1,4]diazepin-2-yl)ethynyl)pyridin-3-yl)butoxy)-2-(2,6-dioxopiperidin-3-yl)isoindoline-1,3-dione]", "values": [
      {"measurement": "IC50", "setting": "[1]", "result": 33, "unit": "nM"},
      {"measurement": "IC50", "setting": "[2]", "result": 2.3, "unit": "nM"},
      {"measurement": "IC50", "setting": "[3]", "result": 20.4, "unit": "nM"},
      {"measurement": "IC50", "setting": "[4]", "result": 19, "unit": "nM"}
    ]}
  ]
}
